Drawing on patent EP0682022B1, “Condensation products of melamine, benzotriazoles and aldehydes” (Ciba Specialty Chemicals Holding Inc., priority 1994, dated 1995), this text covers solubility for 1 compound.

Converted amounts (≈) assume the structure as drawn.

The series in a line: Solubility in water. Format: physicochemical. The settings on record: at room temperature, read-out: Löslichkeit in Wasser.

Turning to `O=C(O)C(Nc1nc(NC(C(=O)O)n2cncn2)nc(NC(C(=O)O)n2cncn2)n1)n1cncn1` (stereo not shown) [Beispiel 25], the solubility is 50 mg/mL (≈ 99.7 mM).
